Data reported in PMC13379085 (PLOS Neglected Tropical Diseases, 2026).
≈ marks a conversion by molar mass, not a printed value. Read-outs that look alike come from different tables or passages of the source.

Tests used:
[1] = tested on: Extracellular L. donovani promastigotes; test: Resazurin viability assay of extracellular L. donovani promastigotes; format: cell-based, Leishmania donovani; details: for Extracellular L. donovani promastigotes MIC50: 72-hour incubation
Protocol: (§1) The effect of compounds on extracellular promastigotes was evaluated using a resazurin-based assay as described previously. In short, late log phase Leishmania promastigotes were seeded in a 96 well plate at 1 x 10^5 parasites per well and treated with drugs (0.5 – 200 µM) for 72 hours at 25°C. Ten microliters of Resazurin (0.02% w/v) were added to the treated parasites to achieve a final concentration of 0.002% w/v and incubated for 24 hours. Viability of the promastigotes was assessed by fluorescence (excitation 544 nm, emission 590 nm, SpectraMax M2, Molecular Devices).

THP-1 macrophages = test: MTT viability of THP-1 macrophages (host cell cytotoxicity); format: cell-based; details: for CC50: MTT assay
Protocol: Human monocytes, THP-1 (ATCC, TIB002) were used as host cells for Leishmania infection and to assess drug cytotoxicity. The cells were cultured at 37C, 5% CO2 in RPMI medium (ATCC) supplemented with 10% FBS, 1% Penicillin/Streptomycin and 0.05 mM of β-mercaptoethanol. Cells were used in experiments up to passage 10.
Effect of the compounds on THP-1 cell viability measured using thiazolyl blue tetrazolium bromide which measures cell metabolic activity (MTT). […] Macrophages were then treated with compounds resuspended in RPMI media (1–50 µM) for 24 hours. Media was replaced with thiazolyl blue tetrazolium bromide solubilized in RPMI media (0.5 mg/mL) and incubated at 37°C for 2 hours. The reduced formazan crystals were solubilized with isopropyl alcohol and the absorbance of the resulting solution was measured at 560 nm with a background subtraction at 670 nm. […] This process was repeated with a 72-hr incubation and extended concentration range (1–300 µM) for select compounds.

[2] = tested on: Intracellular L. donovani amastigotes; test: Image-based Giemsa staining of intracellular L. donovani in bone marrow derived macrophages; format: cell-based, Leishmania donovani; details: 72-hour incubation
Protocol: (§2) Bone marrow derived macrophages (BMDMs) were isolated from BALB/c mice and cultured as previously described. […] Completely differentiated BMDMs are obtained after 7 days of culture with media change every 2 days. Harvested cells are seeded onto 10 mm glass cover slips at 5 x 10^5 cells/ well of a 24 well plate in DMEM media (without LCM) and allowed to adhere overnight. BMDM cells are then infected overnight with LV82 L. donovani or L. mexicana (NR-51210) at a multiplicity of infection of 10. After infection, cells were washed three times with fresh media to remove extracellular promastigotes and treated with compounds for a 72-hour incubation. BMDM cells were then washed with phosphate buffered saline, fixed with ice-cold methanol, and stained with Giemsa (5% v/v in water). The cover slips with stained cells are mounted onto glass slides and imaged on EVOS XL (100X, Thermo Fisher Scientific). Leishmania amastigotes per 100 macrophages were determined in a blinded manner.

[3] = tested on: Intracellular L. donovani amastigotes; test: Luminescence-based assay of intracellular L. donovani burden in THP-1 macrophages; format: cell-based, Leishmania donovani; details: for IC50: THP1 macrophages, luminescence assay, 72 hours of treatment, read-out: Intracellular L. donovani amastigotes Lum IC50; for Selectivity 24h LC50/ Lum IC50: host-directed effect vs cytotoxicity in THP-1
Protocol: Luminescent strains, L. donovani LV82 expressing firefly luciferase (a kind gift from Dr. Abhay Satoskar, Ohio State University) and L. mexicana (NR-51210, ATCC) expressing renilla luciferase were used to evaluate the effect of the compounds in intracellular and extracellular conditions. Wild-type L. donovani LV82 (ATCC) were used for Giemsa staining based experiments. All parasites were cultured at 25°C and 5% CO2 in M199 media (Corning) supplemented with 10% FBS, 1% Penicillin/Streptomycin, and Hemin (0.01 mg/mL), and used in experiments up to passage 15.
THP-1 cells were seeded in a 96 well plate (25,000 cells/well) overnight then differentiated with 150 nM phorbol 12-myristate 13-acetate (PMA) over 72 hours (S1 Fig). […] Briefly, promastigotes of a known cell density were resuspended in RPMI media (with 10% FBS, 1% P/S and 0.05 mM β-mercaptoethanol) and incubated with adhered THP-1 cells over 18 hours. After infection, cells were washed three times with fresh media to remove extracellular promastigotes.
Infected macrophages were then treated with compounds solubilized in DMSO ranging from 0.1-10 µM in concentrations. After 72 hours of treatment, the viability of the amastigotes within macrophages was determined using Promega firefly luminescence assay (Cat E1500) or Pierce Renilla luciferase assay (Cat 16166) for L. donovani and L. mexicana strains, respectively. Briefly, media was removed, and cells were lysed with the assay lysis buffer. The luciferase substrate was then incubated with the lysed cells for 10 min at room temperature and luminescence of live Leishmania was measured in a white opaque 96 well plate using a Biotek plate reader.

L. donovani = details: cited from earlier work
[4] = tested on: Extracellular L. mexicana promastigotes; test: Resazurin viability assay of extracellular L. mexicana promastigotes; format: cell-based, Leishmania mexicana; details: Leishmania mexicana, 72-hour incubation
Protocol: as §1

[5] = tested on: Intracellular L. mexicana amastigotes; test: microbe, parasite or virus in culture; format: cell-based, Leishmania mexicana; details: Leishmania mexicana, Macrophage, 72 h, bone marrow derived macrophages, Giemsa staining, 72-hour incubation
Protocol: as §2

LV82 L. donovani = test: Giemsa staining of intracellular L. donovani in BMDMs from wildtype C57BL/6 or lysozyme knockout mice; format: cell-based, Leishmania donovani; details: 72-hour incubation
Source text: B6.129P2-Lyz2^tm1(cre)Ifo/J mice (stock #004781, herein termed ‘Lys K/O’) were obtained from Jackson Laboratory. This strain has a nuclear-localized Cre recombinase inserted into the first coding ATG of the lysozyme 2 gene (Lyz2) which eliminates endogenous Lyz2 gene function. Wildtype C57BL6/J mice (stock #000664) were obtained as a control.
Bone marrow derived macrophages (BMDMs) were isolated from both mice and cultured as described above in “Image-based Evaluation of Intracellular Anti-Leishmanial Activity”. BMDMs were seeded onto glass cover slips, infected with LV82 L. donovani at a multiplicity of infection of 1:10. Cells were washed to remove extracellular promastigotes and treated with compounds (197, amphotericin B) for a 72-hour incubation. BMDM cells were then washed with phosphate buffered saline, fixed with ice-cold methanol, and stained with Giemsa (5% v/v in water). The cover slips with stained cells are mounted onto glass slides and imaged on EVOS XL (100X, Thermo Fisher Scientific). Leishmania amastigotes per 100 macrophages were determined in a blinded manner.

[6] = 72-hour incubation, read-out: 72 hr viability of THP-1 macrophages LC50
[7] = read-out: 24 hr viability of THP-1 macrophages 24h LC50, 24-hour incubation

Structure (SMILES)	Extracellular L. donovani promastigotes MIC50 [1]	CC50 (THP-1 macrophages; [6])	CC50 (THP-1 macrophages; [7])	IC50 [2]	IC50 [3]	other results
FC(F)(F)c1ccc(-c2ccc(-c3cc(C(F)(F)F)nn3-c3ccc(NC4CCNC4)cc3)cc2)cc1 (racemic) [Compound 25]	2.1 µM	6.3 µM	28.9 µM	2.5 µM	0.7 µM	–
NCC(=O)Nc1ccc(-n2nc(C(F)(F)F)cc2-c2ccc3c(ccc4ccccc43)c2)cc1 [AR-12, reference compound]	–	–	–	–	–	direct effect on the promastigote (L. donovani): no direct effect; parasite burden of L. donovani in infected macrophages (L. donovani; in vitro and in vivo): decrease the parasite burden; MIC50 [4]: 15.1 µM (≈ 6.95 µg/mL); IC50 [5]: 1.5 µM
C[C@@H]1[C@H](O)[C@@H](C)/C=C/C=C/C=C/C=C/C=C/C=C/C=C/[C@H](O[C@@H]2O[C@H](C)[C@@H](O)[C@H](N)[C@@H]2O)C[C@@H]2O[C@](O)(C[C@@H](O)C[C@@H](O)[C@H](O)CC[C@@H](O)C[C@@H](O)CC(=O)O[C@H]1C)C[C@H](O)[C@H]2C(=O)O [Amphotericin B, reference compound]	–	–	–	–	–	anti-leishmanial activity in WT and Lys K/O BMDMs (LV82 L. donovani): retained its anti-leishmanial activity in both WT and Lys K/O BMDMs
Nc1ccc(CNC2CCN(c3ccc(-n4nc(C(F)(F)F)cc4-c4ccc(-c5ccc(C(F)(F)F)cc5)cc4)cc3)C2)cc1 (stereo not drawn) [Compound 23]	4.0 µM	6.9 µM	5.8 µM	0.9 µM	0.4 µM	–
CC(C)(C)C#Cc1ccc(-c2cc(C(F)(F)F)nn2-c2ccc(N3CCNCC3)cc2)cc1 [Compound 44]	1.9 µM	14.5 µM	7.4 µM	1 µM	0.9 µM	–
NCC(=O)Nc1ccc(-n2cc(C(F)(F)F)nc2-c2ccc(-c3ccccc3)cc2)cc1 [Compound 50]	14.6 µM	42.7 µM	23.5 µM	9.1 µM	1.5 µM	–
N#Cc1cccc(CN2CCC(Nc3ccc(-n4nc(C(F)(F)F)cc4-c4ccc(-c5ccc(C(F)(F)F)cc5)cc4)cc3)C2)c1 (stereo not drawn) [Compound 53]	–	–	–	–	–	direct effects on extracellular promastigote viability ([1]; for 53 strain not specified): no direct effects; reduction in macrophage viability (THP-1 macrophages; 72 hr incubation up to 300µM): Neither compound had any reduction; MIC50 [4]: > 200 µM; Selectivity 24h LC50/ Lum IC50 [3]: >112.6
O=C(Nc1ccc(-n2cc(C(F)(F)F)nc2-c2ccc(-c3ccccc3)cc2)cc1)C1CCN(Cc2ccccc2)C1 (stereo not drawn) [Compound 86]	3.2 µM	8.2 µM	21.9 µM	0.6 µM	1.4 µM	–
Oc1ccccc1CN1CCC(Nc2ccc(-n3nc(C(F)(F)F)cc3-c3ccc(-c4ccc(C(F)(F)F)cc4)cc3)cc2)C1 (stereo not drawn) [Compound 91]	56.3 µM	53.4 µM	> 50 µM	2.4 µM	1.4 µM	–
N[C@@H]1CCN(c2ccc(-n3nc(C(F)(F)F)cc3-c3ccc(-c4ccc(C(F)(F)F)cc4)cc3)cc2)C1 [Compound 129]	1.7 µM	6.2 µM	6.3 µM	0.4 µM	0.1 µM	–
N[C@H]1CCN(c2ccc(-n3nc(C(F)(F)F)cc3-c3ccc(-c4ccc(C(F)(F)F)cc4)cc3)cc2)C1 [Compound 130]	2.1 µM	6.4 µM	4.2 µM	1.6 µM	0.2 µM	–
NC1CCN(c2ccc(-n3nncc3-c3ccc(C(F)(F)F)cc3)cc2)C1 (stereo not drawn) [Compound 134]	–	–	–	–	–	MIC50 [4]: 16.5 µM (≈ 6.16 µg/mL); IC50 [5]: 0.8 µM; Selectivity 24h LC50/ Lum IC50 [3]: 42.1
NCC(=O)Nc1ccc(-n2ccnc2-c2ccc(-c3ccc(C(F)(F)F)cc3)cc2)cc1 [Compound 158]	4.6 µM	16.5 µM	16 µM	0.6 µM	0.2 µM	intracellular activity (primary screen) ([3]; imidazole series): retaining potent intracellular activity
Oc1ccc(CNC2CCN(c3ccc(-n4nc(C(F)(F)F)cc4C4CCCCC4)cc3)CC2)cc1 [Compound 319]	0.8 µM	7.2 µM	6.4 µM	3.4 µM	0.8 µM	–
N#Cc1ccc(CNCC(=O)Nc2ccc(-n3nc(C(F)(F)F)cc3C3CCCCC3)cc2)cc1 [Compound 354]	–	–	–	–	–	MIC50 [4]: 30.7 µM (≈ 14.8 µg/mL); IC50 [5]: 3.5 µM; Selectivity 24h LC50/ Lum IC50 [3]: 44.9
